This is an account of results in patent US11702404B2, “GLP-1R modulating compounds” (priority 2019, dated 2023).

pEC50: −log10 of the molar value. Like-named read-outs stand apart in the source and are kept apart here.

Series [1] can be described thus: Microsomal stability, human liver microsomes (predicted hepatic clearance). The conditions noted are these: predicted from in vitro microsomal stability data.
The next series has as its target GLP-1R (Homo sapiens, UniProt P43220). The experiment in a line: GLP-1R activation: cAMP increase in CHO cells stably expressing GLP-1R. Format: cell-based. The following applies: read-out: EC50.
Setting [2] is: cAMP increase, CHO cells stably expressing GLP-1R, 10 point dose response, 30 minutes incubation.

Chain of GLP-1R (P43220 24-463): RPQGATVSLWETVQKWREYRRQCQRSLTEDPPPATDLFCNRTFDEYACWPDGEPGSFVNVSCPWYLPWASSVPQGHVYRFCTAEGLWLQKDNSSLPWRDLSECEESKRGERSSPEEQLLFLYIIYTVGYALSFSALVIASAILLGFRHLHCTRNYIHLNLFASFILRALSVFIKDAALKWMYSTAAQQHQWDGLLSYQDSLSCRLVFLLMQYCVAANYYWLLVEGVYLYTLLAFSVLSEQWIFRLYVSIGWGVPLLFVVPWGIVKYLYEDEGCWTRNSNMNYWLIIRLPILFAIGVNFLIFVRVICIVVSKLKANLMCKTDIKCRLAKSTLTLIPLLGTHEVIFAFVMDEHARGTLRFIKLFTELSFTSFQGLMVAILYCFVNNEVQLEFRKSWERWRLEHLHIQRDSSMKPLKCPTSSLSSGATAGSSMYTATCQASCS

In the case of `N#Cc1ccc(COc2cccc(-c3cc(F)c(Cc4nc5c(F)cc(C(=O)O)cc5n4C[C@@H]4CCO4)cc3F)n2)cn1` [Example 659], in series [1], the “Predicted Hepatic Clearance (Pred. Cl.)” value was 3.5 mL/min/kg. Also, at GLP-1R (setting [2]), the pEC50 (usually the EC50 on a negative log10 scale, so that one unit is a factor of ten) was 9.77.
Taken in the same sequence, the figures for `COCCn1c(Cc2cc(F)c(-c3cccc(OCc4cc(Cl)ccc4F)n3)cc2F)nc2ccc(C(=O)O)cc21` [Example 660] were 4.17 mL/min/kg and 7.30.
Taken in the same sequence, the figures for `COCCn1c(Cc2cc(F)c(-c3nc(OCc4ccc(C(F)F)cc4F)ccc3F)cc2F)nc2ccc(C(=O)O)cc21` [Example 661] were 4 mL/min/kg and 8.71.
In the case of `COCCn1c(Cc2cc(F)c(-c3cccc(OCc4ccc(Cl)cc4F)n3)cc2F)nc2c(F)cc(C(=O)O)cc21` [Example 662], the “Predicted Hepatic Clearance (Pred. Cl.)” value in series [1] was 3.67 mL/min/kg. For the same compound, the pEC50 at GLP-1R (setting [2]) was 9.41.
Taken in the same sequence, the figures for `O=C(O)c1ccc2nc(Cc3cc(F)c(-c4cccc(OCc5ccc(Cl)cc5F)n4)cc3F)n(C[C@@H]3CCO3)c2c1` [Example 663] were 1.83 mL/min/kg and 9.29.
Taken in the same sequence, the figures for `COCCn1c(Cc2cc(F)c(-c3nc(OCc4ccc(C(F)F)cc4F)ccc3F)cc2F)nc2c(F)cc(C(=O)O)cc21` [Example 664] were 4.67 mL/min/kg and 9.17.
Regarding `O=C(O)c1ccc2nc(Cc3cc(F)c(-c4cccc(OCc5ccc(C(F)(F)F)cc5F)n4)cc3F)n(C[C@@H]3CCO3)c2c1` [Example 665], the “Predicted Hepatic Clearance (Pred. Cl.)” value in series [1] is 1.83 mL/min/kg. Moreover, the negative logarithm of the EC50 (pEC50) at GLP-1R (setting [2]) is 9.29.
Taken in the same sequence, the figures for `N#Cc1ccc(COc2nc(-c3ccc(Cc4nc5c(F)cc(C(=O)O)cc5n4C[C@@H]4CCO4)cc3F)ncc2F)c(F)c1` [Example 666] were 3.33 mL/min/kg and 9.29.
Regarding `O=C(O)c1ccc2nc(Cc3ccc(-c4cccc(OCc5ccc(C(F)(F)F)cc5F)n4)cc3F)n(C[C@@H]3CCO3)c2c1` [Example 667], the “Predicted Hepatic Clearance (Pred. Cl.)” value in series [1] is 6 mL/min/kg. At GLP-1R (setting [2]), the pEC50 was 10.00.
Taken in the same sequence, the figures for `N#Cc1cc(F)c(COc2cccc(-c3ccc(Cc4nc5ccc(C(=O)O)cc5n4C[C@@H]4CCO4)c(F)c3)n2)cc1F` [Example 668] were 3.67 mL/min/kg and 9.25.
In the case of `O=C(O)c1cc(F)c2nc(Cc3cc(F)c(-c4cccc(OCc5ccc(C(F)F)cc5F)n4)cc3F)n(CC34CC(CO3)C4)c2c1` [Example 669], the “Predicted Hepatic Clearance (Pred. Cl.)” value in series [1] was 1.83 mL/min/kg. Besides, the negative-log EC50 (pEC50) at GLP-1R (setting [2]) was 9.55.
Taken in the same sequence, the figures for `O=C(O)c1ccc2nc(Cc3cc(F)c(-c4cccc(OCc5ccc(C(F)F)cc5F)n4)cc3F)n(CC34CC(CO3)C4)c2c1` [Example 670] were 3.17 mL/min/kg and 9.29.
Taken in the same sequence, the figures for `O=C(O)c1ccc2nc(Cc3cc(F)c(-c4ccnc(OCc5ccc(C(F)F)cc5F)n4)cc3F)n(CC34CC(CO3)C4)c2c1` [Example 671] were 1.83 mL/min/kg and 8.75.
Taken in the same sequence, the figures for `COCCn1c(Cc2cc(F)c(-c3ccnc(OCc4ccc(C(F)F)cc4F)n3)cc2F)nc2c(F)cc(C(=O)O)cc21` [Example 672] were 1.83 mL/min/kg and 9.24.
Take `COCCn1c(Cc2cc(F)c(-c3ccc(F)c(OCc4ccc(C#N)cc4F)n3)cc2C)nc2ccc(C(=O)O)cc21` [Example 673]: in series [1], the “Predicted Hepatic Clearance (Pred. Cl.)” value is 4.5 mL/min/kg. The pEC50 at GLP-1R (setting [2]) is 8.45.
Taken in the same sequence, the figures for `COCCn1c(Cc2cc(F)c(-c3cccc(OCc4ccc(C#N)cc4F)n3)cc2C)nc2ccc(C(=O)O)cc21` [Example 674] were 6 mL/min/kg and 8.56.
Taken in the same sequence, the figures for `N#Cc1ccc(COc2nc(-c3ccc(Cc4nc5c(F)cc(C(=O)O)cc5n4C[C@@H]4CCO4)cc3)ccc2F)c(F)c1` [Example 675] were 2.83 mL/min/kg and 9.80.
Taken in the same sequence, the figures for `N#Cc1cc(F)c(COc2nc(-c3ccc(Cc4nc5ccc(C(=O)O)cc5n4C[C@@H]4CCO4)cc3F)ccc2F)cc1F` [Example 676] were 2.33 mL/min/kg and 9.28.
With `N#Cc1cc(F)c(COc2nccc(-c3cc(F)c(Cc4nc5c(F)cc(C(=O)O)cc5n4C[C@@H]4CCO4)cc3F)n2)cc1F` [Example 677], the “Predicted Hepatic Clearance (Pred. Cl.)” value in series [1] is 1.83 mL/min/kg. On GLP-1R (setting [2]), the pEC50 is 10.22.
Taken in the same sequence, the figures for `CCn1cnnc1Cn1c(Cc2cc(F)c(-c3cccc(OCc4ccc(C(F)F)cc4F)n3)cc2F)nc2ccc(C(=O)O)cc21` [Example 678] were 4.17 mL/min/kg and 9.06.
As to `O=C(O)c1ccc2nc(Cc3c(F)cc(-c4cccc(OCc5ccc(C(F)F)cc5F)n4)cc3F)n(C[C@@H]3CCO3)c2c1` [Example 679], the “Predicted Hepatic Clearance (Pred. Cl.)” value in series [1] was 5 mL/min/kg. Also, the negative-log EC50 (pEC50) at GLP-1R (setting [2]) is 10.22.
`N#Cc1cc(F)c(COc2cccc(-c3cc(F)c(Cc4nc5ccc(C(=O)O)cc5n4C[C@@H]4CCO4)c(F)c3)n2)cc1F` [Example 680]: in series [1], the “Predicted Hepatic Clearance (Pred. Cl.)” value was 5.5 mL/min/kg. Besides, the pEC50 at GLP-1R (setting [2]) was 9.96.
Taken in the same sequence, the figures for `COCCn1c(Cc2ccc(-c3cccc(OCc4ccc(C#N)cc4F)n3)c(F)c2)nc2c(F)cc(C(=O)O)cc21` [Example 681] were 3.33 mL/min/kg and 8.25.
`N#Cc1ccc(COc2cccc(-c3cnc(Cc4nc5ccc(C(=O)O)cc5n4C[C@@H]4CCO4)c(F)c3)n2)c(F)c1` [Example 682]: the “Predicted Hepatic Clearance (Pred. Cl.)” value in series [1] is 2.5 mL/min/kg. At GLP-1R (setting [2]), the pEC50 is 9.23.
Taken in the same sequence, the figures for `N#Cc1ccc(COc2cccc(-c3cc(=O)n(Cc4nc5ccc(C(=O)O)cc5n4CC45CC(CO4)C5)cc3F)n2)c(F)c1` [Example 683] were 6.5 mL/min/kg and 8.62.
Taken in the same sequence, the figures for `COCCn1c(Cn2cc(F)c(-c3cccc(OCc4ccc(C#N)cc4F)n3)cc2=O)nc2c(F)cc(C(=O)O)cc21` [Example 684] were 3 mL/min/kg and 9.54.
Take `N#Cc1ccc(COc2nccc(-c3cc(F)c(Cc4nc5ccc(C(=O)NS(=O)(=O)C6CC6)cc5n4C[C@@H]4CCO4)cc3F)n2)c(F)c1` [Example 685]: the “Predicted Hepatic Clearance (Pred. Cl.)” value in series [1] was 2.33 mL/min/kg. Moreover, on GLP-1R (setting [2]), the pEC50 was 8.98.
Taken in the same sequence, the figures for `Cc1cc(-c2ccc(F)c(OCc3ccc(C#N)cc3F)n2)ccc1Cc1nc2ccc(C(=O)O)cc2n1C[C@@H]1CCO1` [Example 686] were 4 mL/min/kg and 9.26.
Taken in the same sequence, the figures for `COC1(Cn2c(Cc3cc(F)c(-c4cccc(OCc5ccc(C#N)cc5F)n4)cc3F)nc3ccc(C(=O)O)cc32)CN(C(C)=O)C1` [Example 687] were 8.67 mL/min/kg and 6.74.
Taken in the same sequence, the figures for `COC1(Cn2c(Cc3cc(F)c(-c4cccc(OCc5ccc(C#N)cc5F)n4)cc3F)nc3ccc(C(=O)O)cc32)CN(S(C)(=O)=O)C1` [Example 688] were 10.3 mL/min/kg and 5.92.
Regarding `CC(=O)N1C[C@@H](F)C[C@@H]1Cn1c(Cc2cc(F)c(-c3cccc(OCc4ccc(C#N)cc4F)n3)cc2F)nc2ccc(C(=O)O)cc21` [Example 690], in series [1], the “Predicted Hepatic Clearance (Pred. Cl.)” value is 6 mL/min/kg. Also, on GLP-1R, the pEC50 was 8.40.
